{
  "source": "patent US20260055369A1",
  "about": "“METHOD FOR GENERATING CELLS OF THE T CELL LINEAGE WITH ENGINEERING BROADLY REACTIVE HUMAN NOTCH LIGAND” (H. Lee Moffitt Cancer Center and Research Institute, Inc., priority 2022, published 2026)",
  "key": {"Notch1 [1]": {"tested_on": "Notch1", "assay": "Notch inhibition assay with soluble antagonists and WT DLL4 coated plates (CHO-K1 N1-Gal4)", "type": "cell-based", "conditions": "comparison with DAPT and BB-94, plates coated with 50 nM WT DLL4; FIG. 4B; read-out: IC50 for inhibition of Notch1 activation", "protocol": "For CHO-K1 N1-Gal4 reporter cells, on day one, biotinylated WT DLL4 was pre-coated in 96-well plates at 50 nM following the same protocol described above. Next, CHO-K1 N1-Gal4 cells were detached with trypsin-EDTA, washed, and diluted at 200,000 cells/mL in α-MEM media. Ten-fold serial dilutions of non-biotinylated DLL4 ligands (N-EGF5) were prepared in DPBS starting at 600 nM. Next, soluble inhibitors were mixed in ratio 1:1 with CHO-K1 N1-Gal4 200,000 cells/mL stocks for 15 min at room temperature to pre-block Notch receptors. Two hundred microliters of inhibition reactions containing 20,000 reporter cells were added to WT DLL4-coated wells, and plates incubated for 24 hours at 37° C. and 5% CO2. When DAPT (gamma-secretase inhibitor, Sigma) and BB-94 (ADAM metalloprotease inhibitor, Sigma) were used, stock solutions were prepared at 100 μM in 8% DMSO. Appropriate DMSO controls were included to test Notch activation and cell viability. Final DMSO concentration in the experiment was kept below 1%. […] On day two, assay plates were washed with 200 μL of DPBS, CHO-K1 N1-Gal4 cells detached with trypsin-EDTA, quenched with 200 μL of α-MEM media, and Notch activation measured by flow cytometry (BD Accuri C6 Plus). […]"}, "Notch1 [2]": {"tested_on": "Notch1", "assay": "Notch inhibition assay in co-culture format (CHO-K1 N1-Gal4 with HEK293T expressing WT DLL4)", "type": "cell-based", "conditions": "co-culture 1:1 with HEK293T expressing WT DLL4; read-out: IC50 for inhibition of Notch1 activation by cellular DLL4", "protocol": "For inhibition of CHO-K1 N1-Gal4 cells with DAPT and Delta^MAX, the experiment was set-up following the protocol described above with the exception that CHO-K1 N1-Gal4 reporters were incubated with HEK293T-expressing WT DLL4 for Notch activation. Three-fold serial dilutions of soluble Delta^MAX and DAPT were prepared in DPBS starting at 6,000 nM. For DAPT, a stock solution of 100 μM in 8% DMSO was prepared before serial dilutions in DPBS. Appropriate DMSO controls were also assayed for cytotoxicity. Final DMSO concentration in the wells was maintained below 1%. Thirty thousand signal senders and pre-blocked signal receivers (100 μL each) were incubated for 24 hours at 37° C. and 5% CO2 before analysis by flow cytometry. Maximum Notch activation (100%) was set in the absence of soluble inhibitors and normalized to wells containing CHO-K1 N1-Gal4 cells and HEK293T lacking expression of WT DLL4. Mean fluorescence intensity is represented as percentage relative to Notch activation in the absence of inhibitors±s.d. of three independent biological replicates."}},
  "data": [
    {"smiles": "CNC(=O)[C@H](Cc1ccccc1)NC(=O)[C@H](CC(C)C)[C@H](CSc1cccs1)C(=O)NO", "note": "[BB-94, reference compound]", "values": [
      {"measurement": "IC50", "setting": "Notch1 [1]", "result": 1000, "unit": "nM"}
    ]},
    {"smiles": "C[C@H](NC(=O)Cc1cc(F)cc(F)c1)C(=O)N[C@H](C(=O)OC(C)(C)C)c1ccccc1", "note": "[DAPT, reference compound]", "values": [
      {"measurement": "IC50", "setting": "Notch1 [1]", "result": 40, "unit": "nM"},
      {"measurement": "IC50", "setting": "Notch1 [2]", "result": 100, "unit": "nM"}
    ]}
  ]
}
